Test results from ChEMBL document CHEMBL6114952, “Synthesis and antitumor effects of novel betulinic acid derivatives bearing electrophilic moieties” (Bioorg Med Chem, 2025).
Active and inactive are the calls of the source. The rule behind the calls is not given here.

What was measured:
[1] = test system: MCF7; test: Induction of ROS generation in human MCF7 cells assessed as increase in intracellular ROS level at 0.5 to 2 uM incubated for 24 hrs by DCFH-DA staining based microscopic analysis; assay type: functional, cell-based; conditions: dose 0.5-2 µM
[2] = test system: MCF7; test: Induction of apoptosis in human MCF7 cells assessed as viable cells at 2 uM incubated for 24 hrs by Annexin V-FITC/PI double staining based flow cytometric analysis (reference value: 83.2 %); assay type: functional; conditions: read-out: Activity
[3] = test system: MCF7; test: Antitumor activity against human MCF7 cells xenografted in female BALB/c mouse assessed as tumor growth inhibition at 5 mg/kg, iv administered daily for 14 days relative to control; assay type: functional; conditions: MCF7, 336 h, time 14 day, read-out: TGI
[4] = test system: MCF7; test: Induction of autophagy in human MCF7 cells incubated for 24 hrs by MDC probe based confocal microscopy analysis; assay type: functional, cell-based; conditions: dose 0.5-2 µM
[5] = test system: MCF7; test: Induction of apoptosis in human MCF7 cells assessed as late apoptotic cells at 2 uM incubated for 24 hrs by Annexin V-FITC/PI double staining based flow cytometric analysis (reference value: 11.8 %); assay type: functional
[6] = test system: MCF7; test: Inhibition of colony formation in human MCF7 cells assessed as decrease in colonies incubated for 10 days with replacement of medium for every 3 days by crystal violet staining based assay; assay type: functional, cell-based; conditions: dose 0.5-2 µM, time 10.0 day
[7] = test system: MCF7; test: Induction of apoptosis in human MCF7 cells assessed as early apoptotic cells at 2 uM incubated for 24 hrs by Annexin V-FITC/PI double staining based flow cytometric analysis (reference value: 1.56 %); assay type: functional
[8] = Antiproliferative activity against human Trastuzumab-resistant JIMT-1 cells at 0.5 uM in presence of trastuzumab by MTT assay relative to control; assay type: functional, Trastuzumab-resistant JIMT-1 cell
[9] = test system: MCF7; test: Induction of cell cycle arrest in human MCF7 cells assessed as accumulation of cells at G1 phase at 0.5 uM incubated for 24 hrs by PI/RNase staining based flow cytometric analysis (reference value: 52.7 %); assay type: functional
[10] = test system: MCF7; test: Induction of cell cycle arrest in human MCF7 cells assessed as accumulation of cells at G2/M phase at 0.5 uM incubated for 24 hrs by PI/RNase staining based flow cytometric analysis (reference value: 20.8 %); assay type: functional
[11] = test system: MCF7; test: Induction of apoptosis in human MCF7 cells assessed as necrotic cells at 1 uM incubated for 24 hrs by Annexin V-FITC/PI double staining based flow cytometric analysis (reference value: 3.44 %); assay type: functional
[12] = target: Serine/threonine-protein kinase mTOR (Homo sapiens) (UniProt P42345); test: Inhibition of mTOR phosphorylation in human Trastuzumab-resistant JIMT-1 cells at 1 uM cotreated with trastuzumab by Western blot analysis; assay type: cell-based; conditions: Trastuzumab-resistant JIMT-1 cell
[13] = test system: MDA-MB-231; test: Antiproliferative activity against human MDA-MB-231 cells assessed as inhibition of cell proliferation incubated for 48 hrs by MTT assay; assay type: functional, cell-based; conditions: MDA-MB-231, 48 h
[14] = target: Serine/threonine-protein kinase mTOR (Homo sapiens) (UniProt P42345); test: Inhibition of mTOR phosphorylation in human MCF7 cells incubated for 24 hrs by Western blot analysis; assay type: cell-based; conditions: dose 0.5-2 µM
[15] = test system: MCF7; test: Induction of cell cycle arrest in human MCF7 cells assessed as accumulation of cells at G1 phase at 2 uM incubated for 24 hrs by PI/RNase staining based flow cytometric analysis (reference value: 52.7 %); assay type: functional
[16] = test system: HeLa; test: Antiproliferative activity against human HeLa cells assessed as inhibition of cell proliferation incubated for 48 hrs by MTT assay; assay type: functional, cell-based
[17] = test system: JIMT-1; test: Synergistic antiproliferative activity against human JIMT-1 cells assessed inhibition of cell growth at 0.25 to 1 uM by MTT assay; assay type: functional, cell-based; conditions: dose 0.25-1 µM
[18] = test system: MCF7; test: Induction of apoptosis in human MCF7 cells assessed as viable cells at 0.5 uM incubated for 24 hrs by Annexin V-FITC/PI double staining based flow cytometric analysis (reference value: 83.2 %); assay type: functional; conditions: read-out: Activity
[19] = test system: Trastuzumab-resistant JIMT-1 cell; test: Inhibition of AKT phosphorylation in human Trastuzumab-resistant JIMT-1 cells at 1 uM cotreated with trastuzumab by Western blot analysis; assay type: cell-based
[20] = test system: MCF7; test: Induction of cell cycle arrest in human MCF7 cells assessed as accumulation of cells at S phase at 0.5 uM incubated for 24 hrs by PI/RNase staining based flow cytometric analysis (reference value: 26.4 %); assay type: functional
[21] = test system: MCF7; test: Induction of cell cycle arrest in human MCF7 cells assessed as accumulation of cells at G2/M phase at 1 uM incubated for 24 hrs by PI/RNase staining based flow cytometric analysis (reference value: 20.8 %); assay type: functional
[22] = test system: HeLa; test: Inhibition of cell migration in human HeLa cells incubated for 12 to 24 hrs by wound healing assay; assay type: functional, cell-based; conditions: dose 1-4 µM, time 12-24 hrs
[23] = test system: MCF7; test: Induction of apoptosis in human MCF7 cells assessed as necrotic cells at 2 uM incubated for 24 hrs by Annexin V-FITC/PI double staining based flow cytometric analysis (reference value: 3.44 %); assay type: functional
[24] = Toxicity in female BALB/c mouse xenografted with human MCF7 cells assessed as body weight loss at 5 mg/kg, iv measured daily for 14 days; assay type: organism-based; conditions: in vivo, 336 h, time 14 day
[25] = test system: MCF7; test: Induction of cell cycle arrest in human MCF7 cells assessed as accumulation of cells at S phase at 1 uM incubated for 24 hrs by PI/RNase staining based flow cytometric analysis (reference value: 26.4 %); assay type: functional
[26] = test system: MCF7; test: Induction of cell cycle arrest in human MCF7 cells assessed as accumulation of cells at G1 phase at 1 uM incubated for 24 hrs by PI/RNase staining based flow cytometric analysis (reference value: 52.7 %); assay type: functional
[27] = test system: MCF7; test: Inhibition of cell migration in human MCF7 cells incubated for 12 to 24 hrs by wound healing assay; assay type: functional, cell-based; conditions: dose 1-4 µM, time 12-24 hrs
[28] = test system: Trastuzumab-resistant JIMT-1 cell; test: Inhibition of AKT phosphorylation in human Trastuzumab-resistant JIMT-1 cells at 1 uM by Western blot analysis; assay type: cell-based
[29] = test system: MCF7; test: Induction of apoptosis in human MCF7 cells assessed as late apoptotic cells at 0.5 uM incubated for 24 hrs by Annexin V-FITC/PI double staining based flow cytometric analysis (reference value: 11.8 %); assay type: functional
[30] = test system: MCF7; test: Inhibition of AKT phosphorylation in human MCF7 cells incubated for 24 hrs by Western blot analysis; assay type: cell-based; conditions: dose 0.5-2 µM
[31] = Antiproliferative activity against human Trastuzumab-resistant JIMT-1 cells at 0.5 uM by MTT assay relative to control; assay type: functional, Trastuzumab-resistant JIMT-1 cell
[32] = test system: MCF7; test: Induction of cell cycle arrest in human MCF7 cells assessed as accumulation of cells at G2/M phase at 2 uM incubated for 24 hrs by PI/RNase staining based flow cytometric analysis (reference value: 20.8 %); assay type: functional
[33] = target: Serine/threonine-protein kinase mTOR (Homo sapiens) (UniProt P42345); test: Inhibition of mTOR phosphorylation in human Trastuzumab-resistant JIMT-1 cells at 1 uM by Western blot analysis; assay type: cell-based; conditions: Trastuzumab-resistant JIMT-1 cell
[34] = test system: MCF7; test: Antiproliferative activity against human MCF7 cells assessed as inhibition of cell proliferation incubated for 48 hrs by MTT assay; assay type: functional, cell-based; conditions: MCF7, 48 h
[35] = test system: MCF7; test: Induction of apoptosis in human MCF7 cells assessed as viable cells at 1 uM incubated for 24 hrs by Annexin V-FITC/PI double staining based flow cytometric analysis (reference value: 83.2 %); assay type: functional; conditions: read-out: Activity
[36] = test system: MCF7; test: Induction of cell cycle arrest in human MCF7 cells assessed as accumulation of cells at S phase at 2 uM incubated for 24 hrs by PI/RNase staining based flow cytometric analysis (reference value: 26.4 %); assay type: functional
[37] = test system: MCF7; test: Induction of apoptosis in human MCF7 cells assessed as late apoptotic cells at 1 uM incubated for 24 hrs by Annexin V-FITC/PI double staining based flow cytometric analysis (reference value: 11.8 %); assay type: functional
[38] = test system: MCF7; test: Induction of apoptosis in human MCF7 cells assessed as early apoptotic cells at 0.5 uM incubated for 24 hrs by Annexin V-FITC/PI double staining based flow cytometric analysis (reference value: 1.56 %); assay type: functional
[39] = test system: MCF7; test: Induction of apoptosis in human MCF7 cells assessed as early apoptotic cells at 1 uM incubated for 24 hrs by Annexin V-FITC/PI double staining based flow cytometric analysis (reference value: 1.56 %); assay type: functional
[40] = test system: MCF7; test: Induction of apoptosis in human MCF7 cells assessed as necrotic cells at 0.5 uM incubated for 24 hrs by Annexin V-FITC/PI double staining based flow cytometric analysis (reference value: 3.44 %); assay type: functional

In the case of `C=C(C)[C@@H]1CC[C@]2(C(=O)O)CC[C@]3(C)[C@H](CC[C@@H]4[C@@]5(C)CC[C@H](OC(=O)N6CCN(C(=O)CCl)CC6)C(C)(C)[C@@H]5CC[C@]43C)[C@@H]12`, the Activity [1] is reported as “Active”, the viability at 2 µM [2] is reported as 72.3% and the inhibition in vivo at 5 mg/kg [3] is reported as 36%. For the same compound, the Activity [4] was “Dose-dependent-effect”, the Activity [5] was 22% and the inhibition [6] was “Dose-dependent-effect”. For the same compound, the Activity [7] was 2.72%, the Activity [8] was 59% and the Activity [9] was 54.7%. For the same compound, the Activity [10] was 23.4%, the Activity [11] was 3.93% and the inhibition [12] was “Active”. The IC50 [13] was 1660 nM, the inhibition [14] was “Dose-dependent-effect” and the Activity [15] was 53.4%. For the same compound, the IC50 [16] was 1110 nM, the Activity [17] was “Active” and the viability at 0.5 µM [18] was 79.7%. For the same compound, the inhibition [19] was “Active”, the Activity [20] was 22% and the Activity [21] was 24.3%. For the same compound, the inhibition [22] was “Dose-dependent-effect”, the Activity [23] was 2.93% and the Activity [24] was “Non-toxic”. For the same compound, the Activity [25] was 19.1%, the Activity [26] was 56.4% and the inhibition [27] was “Dose-dependent-effect”. For the same compound, the inhibition [28] was “Active”, the Activity [29] was 15.3% and the inhibition [30] was “Dose-dependent-effect”. The Activity [31] was 19.9%, the Activity [32] was 27.2% and the inhibition [33] was “Active”. For the same compound, the IC50 [34] was 1090 nM, the viability at 1 µM [35] was 74.9% and the Activity [36] was 19.8%. For the same compound, the Activity [37] was 19.2%, the Activity [38] was 2.47% and the Activity [39] was 1.99%. The Activity [40] was 2.49%.
